Test results reported in patent publication US8147801B2, “Methods of using alpha-methylglucoside (AMG) as an indicator for glucose absorption and excretion” (Janssen Pharmaceutica, N.V., priority 2009, dated 2012).

Assays:
SGLT2 [1] = target: T1, SGLT2 (Homo sapiens, UniProt P31639); conditions: literature value (Kanai et al. 1994; US 2008/0234367); cited from earlier work
T1 sequence (P31639 1-672): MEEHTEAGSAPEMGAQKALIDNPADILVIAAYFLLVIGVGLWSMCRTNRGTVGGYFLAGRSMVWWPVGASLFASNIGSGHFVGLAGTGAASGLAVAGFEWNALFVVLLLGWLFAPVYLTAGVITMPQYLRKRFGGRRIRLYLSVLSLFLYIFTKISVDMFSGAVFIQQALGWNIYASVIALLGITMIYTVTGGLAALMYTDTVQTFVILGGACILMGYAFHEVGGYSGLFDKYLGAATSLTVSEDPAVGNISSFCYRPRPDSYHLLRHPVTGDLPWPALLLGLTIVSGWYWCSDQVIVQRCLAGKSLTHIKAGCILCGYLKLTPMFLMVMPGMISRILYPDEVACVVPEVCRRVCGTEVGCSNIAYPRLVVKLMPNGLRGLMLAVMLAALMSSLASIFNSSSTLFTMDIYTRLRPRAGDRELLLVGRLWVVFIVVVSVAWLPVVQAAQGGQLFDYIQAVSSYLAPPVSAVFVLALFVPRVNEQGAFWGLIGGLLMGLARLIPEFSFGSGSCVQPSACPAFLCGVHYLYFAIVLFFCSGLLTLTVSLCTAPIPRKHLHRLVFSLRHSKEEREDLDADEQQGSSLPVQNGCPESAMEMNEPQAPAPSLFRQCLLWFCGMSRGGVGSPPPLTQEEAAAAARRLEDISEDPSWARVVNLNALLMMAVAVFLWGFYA

[2] = tested on: Male Sprague-Dawley (SD) rats; test: Oral AMG test in rats: AMG measured by NMR in GI tract, plasma and urine after SGLT inhibitor dosing; format: in vivo, rat; conditions: for AMG content retained in the GI system / amount of AMG detected in plasma / amount of AMG detected in the urine: rats, compound 0.3 or 3.0 mg/kg oral, AMG 2 g/kg oral 1 h later; for AMG content retained in the GI system: FIG. 1A; for amount of AMG detected in plasma: FIG. 1B; for amount of AMG detected in the urine: FIG. 1C
Method: Male Sprague-Dawley (SD) rats were dosed by oral gavage with either vehicle, 0.5% methylcellulose (methocel) in sterile water, or one of the SGLT inhibitors (Compound 1 and Compound 2) at 0.3 or 3.0 mg/kg. Compounds were administered as a suspension in 0.5% methylcellulose and sterile water. One hour after dosing the animals with the compounds, AMG was administrated orally via gavage (2 g/kg). AMG was dissolved in sterile water. Rats were sacrificed 120 or 240 minutes after AMG administration. Urine and plasma samples were collected and the entire gastrointestinal tract was removed and placed into saline. Subsequently, a GI lysate was made. Aliquots were taken from the samples of plasma, urine and the GI lysate and were extracted with acetonitrile to precipitate protein. […] The aqueous portion was dried down and re-suspended in deuterated water to a volume of 0.5 ml.
Proton NMR spectra were acquired on a Bruker DMX 600 MHz NMR spectrometer (Bruker Biospin Corporation, Billerica, Mass.) with the probe temperature maintained at 32° C. The mildly elevated temperature was used to enhance the chemical shift separation between the solvent peak (the residual water in the sample) and the anomeric proton of AMG (a doublet at 4.80 ppm) which was used for quantification. The solvent peak was saturated using very low power irradiation (a field strength of about 4 Hz) during the pre-pulse delay followed by a 30° pulse to acquire the signal. The pre-pulse delay was 3.0 s and the acquisition time was 2.1 s. The sweep width was 13 ppm using 32 k complex points. Before fourier transformation the data was apodized with 0.5 Hz exponential linebroadening. The amount of AMG present in the sample was determined relative to an internal reference, DSS (2,2-dimethyl-2-silapentane-d6-sulfonic acid, sodim salt) at 0.00 ppm.

SGLT1 [3] = target: T2, SGLT1 (Homo sapiens, UniProt P13866); conditions: literature value (Kanai et al. 1994; US 2008/0234367); cited from earlier work
T2 sequence (P13866 1-664): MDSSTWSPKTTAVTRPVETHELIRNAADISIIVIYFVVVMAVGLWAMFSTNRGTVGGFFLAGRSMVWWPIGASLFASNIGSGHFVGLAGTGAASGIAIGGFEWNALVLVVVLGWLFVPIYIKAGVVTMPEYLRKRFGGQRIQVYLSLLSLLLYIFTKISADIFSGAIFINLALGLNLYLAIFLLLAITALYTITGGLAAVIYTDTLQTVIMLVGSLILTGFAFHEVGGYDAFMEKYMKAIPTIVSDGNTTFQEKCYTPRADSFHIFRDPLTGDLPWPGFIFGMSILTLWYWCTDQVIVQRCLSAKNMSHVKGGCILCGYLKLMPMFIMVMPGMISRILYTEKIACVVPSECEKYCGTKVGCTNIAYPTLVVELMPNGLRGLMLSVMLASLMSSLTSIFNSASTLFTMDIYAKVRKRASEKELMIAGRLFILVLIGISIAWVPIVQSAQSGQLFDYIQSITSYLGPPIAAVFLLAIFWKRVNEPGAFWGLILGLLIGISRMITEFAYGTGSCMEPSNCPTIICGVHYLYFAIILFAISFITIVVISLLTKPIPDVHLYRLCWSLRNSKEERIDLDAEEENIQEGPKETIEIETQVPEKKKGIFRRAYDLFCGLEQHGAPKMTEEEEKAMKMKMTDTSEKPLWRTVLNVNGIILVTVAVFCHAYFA

SGLT1 [4] = target: T2, SGLT1; test: Cell-based 14C-AMG uptake inhibition assay, CHOK1 cells expressing human SGLT1; set-up: expressed in transfected cells; conditions: CHOK1 cells stably expressing human SGLT1, 0.5 mM 14C-AMG, 30 min uptake; read-out: hSGLT1 (IC50, nM) [A]
Method: (§1) Inhibition of SGLT activity with Compound 1 and Compound 2 was assessed in CHOK1 cells stably expressing either human SGLT1 or human SGLT2. Compound 1 and Compound 2, are described in U.S. Patent Application Nos. 2005/0233988 and 2008/0027122, the contents of which are incorporated by reference in their entirety.
CHOK1 cells expressing human SGLT2 or human SGLT1 were seeded in 24-well plates at a density of approximately 400,000 cells/well in F-12 nutrient mixture (Ham's F-12) containing 10% fetal bovine serum, 400 ug/ml Geneticin, 50 units/ml sodium penicillin G (Gibco-BRL) and 50 ug/ml streptomycin sulfate. Cells were maintained in culture for 2 days at 37° C. in a humidified atmosphere containing 5% CO2. On the day of the assay, Compound 1 and Compound 2 were dissolved in DMSO and then diluted in assay buffer. The final concentration of DMSO was 0.5%. Assay buffer contained 137 mM NaCl, 5 mM KCl, 1 mM CaCl2, 1 mM MgCl2, 50 mM Hepes, and 20 mM Tris, pH 7.4. To start the assay, cells were washed once with the assay buffer and then incubated with 250 ul of the assay buffer containing Compound 1 or Compound 2 for 10 min at 37° C. […] Cells were then solubilized with 0.3 N NaOH and aliquots were taken for determination of radioactivity by a liquid scintillation counter. […] Specific uptake was normalized for the protein concentrations measured by the method of Bradford. […]

SGLT2 [5] = target: T1, SGLT2; test: Cell-based 14C-AMG uptake inhibition assay, CHOK1 cells expressing human SGLT2; set-up: expressed in transfected cells; conditions: for IC50: CHOK1 cells stably expressing human SGLT2, 0.5 mM 14C-AMG, 30 min uptake, read-out: hSGLT2 (IC50, nM) [B]; for [A]/[B] (fold): ratio hSGLT1 IC50 / hSGLT2 IC50
Method: as §1
CHOK1 cells expressing human SGLT2 or human SGLT1 were seeded in 24-well plates at a density of approximately 400,000 cells/well in F-12 nutrient mixture (Ham's F-12) containing 10% fetal bovine serum, 400 ug/ml Geneticin, 50 units/ml sodium penicillin G (Gibco-BRL) and 50 ug/ml streptomycin sulfate. Cells were maintained in culture for 2 days at 37° C. in a humidified atmosphere containing 5% CO2. On the day of the assay, Compound 1 and Compound 2 were dissolved in DMSO and then diluted in assay buffer. The final concentration of DMSO was 0.5%. Assay buffer contained 137 mM NaCl, 5 mM KCl, 1 mM CaCl2, 1 mM MgCl2, 50 mM Hepes, and 20 mM Tris, pH 7.4. To start the assay, cells were washed once with the assay buffer and then incubated with 250 ul of the assay buffer containing Compound 1 or Compound 2 for 10 min at 37° C. The transport reaction was initiated by addition of 50 ul ^14C-AMG solution (final concentration, 0.5 mM ^14C-AMG). After incubation for 30 minutes at 37° C., the uptake was stopped by aspiration of the incubation mixture and the cells were washed three times with ice-cold PBS. Cells were then solubilized with 0.3 N NaOH and aliquots were taken for determination of radioactivity by a liquid scintillation counter. Nonspecific AMG uptake was defined as that which occurred in the presence of 100 uM of phlorizin, a specific inhibitor of sodium-dependent glucose cotransporter. Specific uptake was normalized for the protein concentrations measured by the method of Bradford. The 50% inhibitory concentration (IC50) values were calculated from dose-response curves by least square method.

[6] = tested on: facilitated glucose transporters (GLUTs); conditions: cited from earlier work
[7] = tested on: rodent models of diabetes and one canine diabetes model; conditions: cited from earlier work
[8] = rodent models of diabetes and one canine diabetes model

Row | SMILES | AMG content retained in the GI system [2] | amount of AMG detected in plasma [2] | amount of AMG detected in the urine [2] | IC50 (SGLT1 [4]) [nM] | IC50 (SGLT2 [5]) [nM] | [A]/[B] (fold) (SGLT2 [5]) | further results
1 | CO[C@H]1O[C@H](CO)[C@@H](O)[C@H](O)[C@H]1O [AMG, Methyl-alpha-D-glucopyranoside] |  |  |  |  |  |  | Km (SGLT2 [1]): 1600 µM; absorption of oral AMG in vehicle treated rats ([2]; AMG 2 g/kg oral gavage, vehicle treated rats, GI system, plasma and urine samples): absorbed from the GI system; Km (SGLT1 [3]): 400 µM
2 | CCc1ccc(Cc2cn([C@@H]3O[C@H](CO)[C@@H](O)[C@H](O)[C@H]3O)c3ccccc23)cc1 [Compound 1] | did not cause a significant retention | dose-dependent decreases | increase in the amount of AMG detected in the urine | 1700 | 8.4 | 202 | 
3 | OC[C@@H]1O[C@H](n2cc(Cc3ccc(C4CC4)cc3)c3c(F)cccc32)[C@@H](O)[C@H](O)[C@H]1O [Compound 2] | markedly increased at the higher dose | dose-dependent decreases | increased amount of AMG detected in the urine | 270 | 1.9 | 142 | 
4 | O=C(CCc1ccc(O)cc1)c1c(O)cc(O)cc1O [phloretin] |  |  |  |  |  |  | inhibition of facilitated glucose transporters (GLUTs) [6]: potent inhibitor
5 | O=C(CCc1ccc(O)cc1)c1c(O)cc(O)cc1O[C@@H]1O[C@H](CO)[C@@H](O)[C@H](O)[C@H]1O [phlorizin] |  |  |  |  |  |  | fasting and fed plasma glucose levels [7, 8]: lowered fasting and fed plasma glucose levels; glucose excretion [7, 8]: promoted glucose excretion; adverse effects on plasma ion balance, renal function or renal morphology ([7]; treatment for as long as two weeks): No adverse effects
